Measured values from patent publication US20120094384A1, “USE OF COMPOUNDS FOR DIFFERENTIATION OF CELLS” (priority 2009, published 2012).

System: mouse embryonic stem cells (mESC's)
Assay: Mouse embryonic stem cell differentiation assessed by GeneChip array (Affymetrix GeneChip Mouse Exon 1.0ST)
Assay type: cell-based
Details: 0.5 μM, 96 hours, spontaneously differentiating mESC's
Description: Undifferentiated mouse embryonic stem cells (mESC's) were seeded at a density of 1.3×10^6 cells on 6 cm uncoated bacterial grade dishes. Spontaneous differentiation was initiated by removal of LIF from the new incubation medium, which consisted of 2% serum KO DMEM+/−AO-1-530 (0.5 μM). AO-1-530 is the same compound used in Examples 1 and 2. There were three treated and three control replicates.
Cells were incubated on a shaking platform at 37° C. for 24 hours at which time the plating media was removed and fresh medium, or AO-1-530 treated medium added as appropriate. This was repeated at 48 hours and 72 hours.
The partially-differentiated cells or embryoid bodies (EB's) were harvested at 96 hours, washed with PBS, re-suspended in Trizol and stored at −80° C. awaiting RNA extraction. The cells were subsequently thawed and RNA extracted using a standard Trizol isolation procedure with an additional clean-up performed using a Qiagen RNeasy Mini kit and DNase digestion as per the manufacturer's instructions. cRNA was prepared from the tRNA, then hybridised to the Affymetrix GeneChip Mouse Exon 1.0ST array, washed, stained then scanned.
P-value cut-off: 0.05 P-value computation: Asymptotic Multiple testing correction: Benjamini-Hochberg

CCCCCCCCCCc1ccc2c(=O)c(O)c(-c3cc(O)c(O)c(O)c3)oc2c1 [AO1530]
Neurod1 and Fgf4 genes relative to the control cells: increase | remaining 6 genes (Fgf10, Bry, Podxl, Map4k1, Pak1, Eomes) relative to the control cells: decreased | number of genes with significantly altered (P<0.05) expression compared with the controls (T-test, Benjamini-Hochberg): 315 genes | [Drug] (normalized) Pak1 ([Control] (normalized) 0.17034023): −0.2141 | [Drug] (normalized) Bry ([Control] (normalized) 0.32084307): −0.4595 | [Drug] (normalized) Podxl ([Control] (normalized) 0.32956442): −0.3278 | [Drug] (normalized) Eomes ([Control] (normalized) 0.44043383): −0.5036 | [Drug] (normalized) Fgf10 ([Control] (normalized) 0.50325745): −0.5713 | [Drug] (normalized) Map4k1 ([Control] (normalized) −0.1732769): 0.1637 | [Drug] (normalized) Neurod1 ([Control] (normalized) −0.46519312): 0.4739 | [Drug] (normalized) Fgf4 ([Control] (normalized) −0.48913416): 0.3787 | [Drug](raw) Fgf10 ([Control](raw) 394.5062): 187.7 | [Drug](raw) Neurod1 ([Control](raw) 420.62076): 806 | [Drug](raw) Map4k1 ([Control](raw) 814.98): 1029.3136 | [Drug](raw) Eomes ([Control](raw) 2057.381): 1071.638 | [Drug](raw) Fgf4 ([Control](raw) 2079.3152): 3787.6875 | [Drug](raw) Pak1 ([Control](raw) 2240.5337): 1717.2704 | [Drug](raw) Podxl ([Control](raw) 3411.1348): 2162.7986 | [Drug](raw) Bry ([Control](raw) 8229.497): 4804.9707
